In patent US9040501B2, “Compositions and methods for treating cancer” (Eisai Inc., priority 2009, dated 2015):
Like-named read-outs stand apart in the source and are kept apart here.

Tests used:
[1] = Stability in simulated gastric fluid at 37° C. (HPLC); assay type: physicochemical
Source text: […]. See Kararli, T. T. Comparison of the GI anatomy, physiology, and biochemistry of humans and commonly used laboratory animals. BioPharm & DrugDispos. 16:351-380, 1995, which is hereby wholly incorporated by reference. The gastric pH in fasted monkeys has been reported to have a similar range of 1-3. See Kondo, H. et al. Characteristics of the gastric pH profiles of unfed and fed cynomolgus monkeys as pharmaceutical product development subjects. BioPharm & DrugDispos. 24:45-51, 2003, which is hereby wholly incorporated by reference.
Materials: Simulated gastric fluid (SGF) was prepared by mixing the following into 100 mL of HPLC grade (or purified) water: 200 mg of sodium chloride and 1.87 mL of a 37.52% HCl stock solution.
The HPLC analyses were conducted using a Waters UPLC solvent delivery system with Corona CAD detection. The HPLC Column (Waters Atlantis HHS T3 2.1×100 mm, 1.8 um) was maintained at 40° C. and preequilibrated with a solution containing 98% water and 2% acetonitrile. The temperature controlled auto-sampler was maintained at 37° C. The flow rate for the Water/MeCN mobile phase was 0.65 mL/min, with a gradient following sample injection (5 μL) as follows: […]
The Water/MeCN mobile phase was applied to the column with the above described flow rate and gradient and the HPLC chromatograms were collected. After 3.5 minutes, the column was reequilibrated with 98% water/2% MeCN for 1.5 minutes.

[2] = system: murine lymphoma L1210; details: ER-876437 10 mg/kg/Veh
Experimental: Or, a stock of L1210 ascites in BSA solution was diluted to 1×10^4 cells/0.1 ml for use in the study mice.
(§1) The mice were prepared with intravenous (IV) injection of L1210 ascites (prepared as described above) one day prior to commencing the dosing. […] The total IV injection for all mice took about 50 minutes.
All solutions were stored on ice while dosing. Mice were dosed (intraperitoneally (IP) or per os (orally, PO)) twice a day (8 hours apart) for 4 consecutive days.
(§2) Dead mice were autopsied and observed for the presence of tumors in organs.

[3] = target: T1, cytidine deaminase (CDA) (Homo sapiens (Human), UniProt P32320); test: Effect of ER-876437 on the half-life of decitabine in the presence of CDA in Tris-HCl buffer at 37° C.; assay type: biochemical
Experimental: The solvent delivery system employed an HPLC quaternary pump, low pressure mixing. An autosampler having a variable loop, 0.1 to 100 μL range and temperature controlled thermostat was used. […] Degassed HPLC grade water and degassed HPLC grade acetonitrile were used as solvents for the mobile phases. […] [table]

[4] = system: murine lymphoma L1210
Experimental: Preparation of L1210 Cells: L1210 ascitic cells were prepared by passaging them in mice at least three times as follows. Each CD2F1 female mouse was intraperitoneally (IP) injected with about 10^5 L1210 ascitic cells. After one week, the mouse was sacrificed (asphyxiation via CO2). The mouse was placed on its back, its belly surface was cleaned with alcohol wipes, and a small incision was made into the peritoneal cavity. […] Diluted ascites (diluted 1:10 again) were counted on a hematocytometer and the number of cells per mL was calculated. About 10^5 L1210 cells were used for a subsequent passage for another mouse passage. Or, a stock of L1210 ascites in BSA solution was diluted to 1×10^4 cells/0.1 ml for use in the study mice.
as §1
Decitabine was prepared fresh twice a day, just prior to dosing. All solutions were stored on ice while dosing. Mice were dosed (intraperitoneally (IP) or per os (orally, PO)) twice a day (8 hours apart) for 4 consecutive days.
as §2
Preparation of study mice with IV injection of L1210 ascites took about 60 minutes. […] All solutions were stored on ice while dosing. Mice were dosed (IP or PO) twice a day (7 or 8 hours apart) for 4 consecutive days.

[5] = target: T1, cytidine deaminase (CDA); test: Effect of ER-876437 on the half-life of gemcitabine in the presence of CDA in Tris-HCl buffer at 37° C.; assay type: biochemical
Experimental: This Example employed a Phenomenex Luna C18(2) HPLC column (100 Å 4.6×250 mm 5 μm). The solvent delivery system employed an HPLC quaternary pump, low pressure mixing. An autosampler having a variable loop, 0.1 to 100 μL range and temperature controlled thermostat was used. The UV detector can employ a dual wavelength detector, a diode array detector, a variable wavelength detector or equivalent, and can be recorded using chromatographic software (e.g., Waters Empower 2 Build 2154, Agilent ChemStation software version A.09.03 or higher for HPLC or equivalent). The analytical balance employed was capable of weighing ±0.1 mg. Degassed HPLC grade water and degassed HPLC grade acetonitrile were used as solvents for the mobile phases.
Gemcitabine Standard Control: 0.2 mM gemcitabine control was prepared by weighing […] of gemcitabine in a 10 mL volumetric flask. […] Solution was labeled as gemcitabine stock solution.

[6] = system: A2780 human ovarian cancer xenograft; test: In vivo efficacy study in A2780 human ovarian cancer xenograft model; parameters: species or system female nude mice; details: qdx5 for two weeks
Experimental: Animals were dosed daily from Monday to Friday for two weeks.
Female nude mice (NU/NU, strain code 088, 6 weeks old, Charles River Laboratory) were implanted subcutaneously with 5×10^6 A2780 cancer cells per mouse. On day 13 when the tumors were approximately 150 mm^3, treatment started as described in Table 9.
Tumor volume and regressions were followed over time. Tumor volume was calculated by (length×width^2)/2. Note that a complete regression was defined as no measurable tumor for at least 3 consecutive measurements; while a partial regression was defined as tumor shrinkage to equal or less than 50% of original tumor volume for 3 consecutive measurements. Tumor growth delay (TGD) was defined as the median number of days for the control and treatment groups to grow to 342.14 mm^3. The average tumor volume on the first day of treatment (day 13) is 171.07 mm^3.

[7] = ER-876437 1.0 mg/kg/Veh, on autopsy

T1 sequence (P32320 whole entry): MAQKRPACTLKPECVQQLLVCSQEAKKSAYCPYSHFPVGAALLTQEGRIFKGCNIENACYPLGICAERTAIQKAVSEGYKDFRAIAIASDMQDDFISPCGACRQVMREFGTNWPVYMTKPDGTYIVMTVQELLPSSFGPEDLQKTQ

## O=C1NCC=CCN1[C@@H]1O[C@H](CO)[C@@H](O)C1(F)F [ER-876437, 1-((2R,4R,5R)-3,3-difluoro-4-hydroxy-5-(hydroxymethyl)tetrahydrofuran-2-yl)-3,4-dihydro-1H-1,3-diazepin-2(7H)-one]
[1]; SGF at 37° C., analysis time 0:00:30
  % ER-876437 (peak retention time: 2.90 min): 85.88%
[1]; SGF at 37° C., analysis time 0:06:08
  % ER-876437 (peak retention time: 2.90 min): 85.72%
[1]; SGF at 37° C., analysis time 0:11:45
  % ER-876437 (peak retention time: 2.90 min): 86.46%
[1]; SGF at 37° C., analysis time 0:17:24
  % ER-876437 (peak retention time: 2.90 min): 86.38%
[1]; SGF at 37° C., analysis time 0:23:02
  % ER-876437 (peak retention time: 2.90 min): 83.22%
[1]; SGF at 37° C., analysis time 0:28:39
  % ER-876437 (peak retention time: 2.90 min): 83.48%
[1]; SGF at 37° C., analysis time 0:34:17
  % ER-876437 (peak retention time: 2.90 min): 83.80%
[1]; SGF at 37° C., analysis time 0:39:54
  % ER-876437 (peak retention time: 2.90 min): 84.16%
[1]; SGF at 37° C., analysis time 0:45:32
  % ER-876437 (peak retention time: 2.90 min): 82.62%
[1]; SGF at 37° C., analysis time 0:51:10
  % ER-876437 (peak retention time: 2.90 min): 82.41%
[1]; SGF at 37° C., analysis time 0:56:47
  % ER-876437 (peak retention time: 2.90 min): 82.45%
[1]; SGF at 37° C., analysis time 1:02:26
  % ER-876437 (peak retention time: 2.90 min): 82.45%
[1]; SGF at 37° C., analysis time 1:08:04
  % ER-876437 (peak retention time: 2.90 min): 82.55%
[1]; SGF at 37° C., analysis time 1:13:41
  % ER-876437 (peak retention time: 2.90 min): 83.11%
[1]; SGF at 37° C., analysis time 1:19:19
  % ER-876437 (peak retention time: 2.90 min): 81.82%
[1]; SGF at 37° C., analysis time 1:24:56
  % ER-876437 (peak retention time: 2.90 min): 81.24%
[1]; SGF at 37° C., analysis time 1:30:33
  % ER-876437 (peak retention time: 2.90 min): 79.20%
[1]; SGF at 37° C., analysis time 1:36:10
  % ER-876437 (peak retention time: 2.90 min): 79.14%
[1]; SGF at 37° C., analysis time 1:41:47
  % ER-876437 (peak retention time: 2.90 min): 78.47%
[1]; SGF at 37° C., analysis time 1:47:24
  % ER-876437 (peak retention time: 2.90 min): 77.88%
[1]; SGF at 37° C., analysis time 1:53:02
  % ER-876437 (peak retention time: 2.90 min): 78.29%
[1]; SGF at 37° C., analysis time 1:58:39
  % ER-876437 (peak retention time: 2.90 min): 78.56%
[1]; SGF at 37° C., analysis time 2:04:16
  % ER-876437 (peak retention time: 2.90 min): 77.21%
[1]; SGF at 37° C., analysis time 2:21:12
  % ER-876437 (peak retention time: 2.90 min): 76.06%
[1]; SGF at 37° C., analysis time 2:26:50
  % ER-876437 (peak retention time: 2.90 min): 77.34%
[1]; SGF at 37° C., analysis time 2:49:21
  % ER-876437 (peak retention time: 2.90 min): 75.34%
[1]; SGF at 37° C., analysis time 3:17:30
  % ER-876437 (peak retention time: 2.90 min): 72.37%
[1]; SGF at 37° C., analysis time 3:51:16
  % ER-876437 (peak retention time: 2.90 min): 50.13%
[1]; SGF at 37° C., analysis time 4:19:26
  % ER-876437 (peak retention time: 2.90 min): 51.88%
[1]; SGF at 37° C., analysis time 4:47:38
  % ER-876437 (peak retention time: 2.90 min): 48.95%
[1]; SGF at 37° C., analysis time 5:21:25
  % ER-876437 (peak retention time: 2.90 min): 45.19%
[1]; SGF at 37° C., analysis time 5:49:35
  % ER-876437 (peak retention time: 2.90 min): 47.44%
[1]; SGF at 37° C., analysis time 6:17:45
  % ER-876437 (peak retention time: 2.90 min): 44.94%
[1]; SGF at 37° C., analysis time 6:51:31
  % ER-876437 (peak retention time: 2.90 min): 43.29%
[1]; SGF at 37° C., analysis time 7:19:40
  % ER-876437 (peak retention time: 2.90 min): 41.85%
[1]; SGF at 37° C., analysis time 7:47:22
  % ER-876437 (peak retention time: 2.90 min): 41.72%
[1]; SGF at 37° C., analysis time 8:21:11
  % ER-876437 (peak retention time: 2.90 min): 36.89%
[1]; SGF at 37° C., analysis time 8:49:19
  % ER-876437 (peak retention time: 2.90 min): 37.52%
[1]; SGF at 37° C., analysis time 9:17:30
  % ER-876437 (peak retention time: 2.90 min): 36.34%
[1]; SGF at 37° C., analysis time 9:51:17
  % ER-876437 (peak retention time: 2.90 min): 34.61%
[1]; SGF at 37° C., analysis time 10:19:29
  % ER-876437 (peak retention time: 2.90 min): 31.94%
[1]; SGF at 37° C., analysis time 10:47:39
  % ER-876437 (peak retention time: 2.90 min): 32.33%
[1]; SGF at 37° C., analysis time 11:15:53
  % ER-876437 (peak retention time: 2.90 min): 29.85%
[1]; SGF at 37° C., analysis time 11:49:44
  % ER-876437 (peak retention time: 2.90 min): 29.94%
[1]; SGF at 37° C., analysis time 12:17:54
  % ER-876437 (peak retention time: 2.90 min): 27.99%
[1]; SGF at 37° C., analysis time 12:46:10
  % ER-876437 (peak retention time: 2.90 min): 27.39%
[1]; SGF at 37° C., analysis time 13:20:01
  % ER-876437 (peak retention time: 2.90 min): 26.14%
[1]; analysis time 0:00:00, initial sample in water
  % ER-876437 (peak retention time: 2.90 min): 92.18%
[1]; simulated gastric fluid (pH 1.45) at 37° C.
  half-life: 4 to 6 h
[2]; on autopsy
  Mean Liver wts (g) ± SD: 2.02 ± 0.07 g
  Mean Spleen wts (g) ± SD: 0.37 ± 0.04 g
[2]; twice a day (8 hours apart), 4 days
  Mean Survival (days) ± SD: 7.6 ± 0.89 days
[2]; vs vehicle group
  % ILS (Increased Life Span): 2.70%
[3]; Tris-HCl buffer at 37° C.
  inhibition of the effect of CDA on T1/2 of decitabine: nearly completely inhibited
[3]; after 12 hours exposure to CDA with decitabine
  levels of ER-876437: not affected
[4]; [7]
  Mean Liver wts (g) ± SD: 2.04 ± 0.15 g
  Mean Spleen wts (g) ± SD: 0.32 ± 0.02 g
[4]; ER-876437 1.0 mg/kg/Veh, twice a day (7 hours apart), 4 days
  Mean Survival (days) ± SD: 8.4 ± 0.55 days
[4]; ER-876437 1.0 mg/kg/Veh, vs vehicle group
  % ILS (Increased Life Span): 5.00%
[4]; with 0.1 mg/kg decitabine PO, L1210 survival model
  minimally effective dose: 0.1 mg/kg
[5]; CDA plus ER-876437 in the incubation mixture, after 7 h
  gemcitabine remaining: greater than 95%
[5]; Tris-HCl buffer at 37° C.
  inhibition of the effect of CDA on T1/2 of gemcitabine: nearly completely inhibited
[5]; after 7 hours of exposure to CDA with gemcitabine
  levels of ER-876437: not affected
[6]; gemcitabine 1 mg/kg PO alone or ER-876437 10 mg/kg PO alone
  regressions or tumor free survivors at day 41: no regressions or tumor free survivors
[6]; gemcitabine 1 mg/kg PO and/or ER-876437 10 mg/kg PO (30 minutes prior)
  effect on tumor growth (FIG. 3): no effect at all
[6]; gemcitabine 1 mg/kg PO and/or ER-876437 10 mg/kg PO (30 minutes prior), delay vs vehicle to reach 342.14 mm^3
  TGD (tumor growth delay): 2 days
